The subject of data set [1] is Human alphaherpesvirus 1. The data set can be described thus: Antiviral activity against Herpes simplex virus (type 1 / strain F) infected in Vero cells assessed as reduction of number of viral plaques at 100 uM after 2 days relative to control. Format: functional. The following applies: Human alphaherpesvirus 1, strain F, 48 h.
Data set [2] in a line: Cytotoxicity against human HepG2(2.2.15) cells assessed as cell viability after 9 days by MTS/PMS assay. It counts as cell-based.
The nature of data set [3]: Cytotoxicity against african green monkey Vero cells assessed as cell viability after 2 days by MTS/PMS assay. Format: cell-based. The note with it: chlorocebus sabaeus.
The nature of data set [4]: Cytotoxicity against bovine MDBK cells assessed as cell viability after 3 days by MTS/PMS assay. Format: cell-based, Bos taurus. The following applies: cattle.
Data set [5] deals with Hepatitis B virus. Description: Antiviral activity against Hepatitis B virus infected in HepG2(2.2.15) cells assessed as reduction in HBsAg level at 100 uM after 9 days by ELISA relative to control. Format: functional. The note with it: HepG2 2.2.15, 216 h. In general terms: In an ELISA, binding on a coated surface is turned into a signal by an enzyme label.
The nature of data set [6]: Antiviral activity against Bovine viral diarrhea virus 1-NADL ATCC VR534 infected in MDBK cells assessed as reduction of viral cytopathic effect at 100 uM after 2 days by MTS assay relative to control. It counts as functional. The note with it: Bovine viral diarrhea virus isolates and strains, 48 h. A general note: Protection from cytopathic effect is a common read-out in antiviral testing.

Data set [7] is described as follows: Antiviral activity against Bovine viral diarrhea virus 1-NADL ATCC VR534 infected in MDBK cells assessed as reduction of viral cytopathic effect after 2 days bt MTS assay. The note with it: Bovine viral diarrhea virus isolates and strains, 48 h. Format: functional, cell-based.
Data set [8] has as its system Human alphaherpesvirus 1. Description: Antiviral activity against Herpes simplex virus (type 1 / strain F) infected in Vero cells assessed as reduction of number of viral plaques after 2 days. It counts as functional, organism-based. The following applies: Human alphaherpesvirus 1, strain F, 48 h.
For data set [9], the system named is Hepatitis B virus. The data set can be described thus: Antiviral activity against Hepatitis B virus infected in HepG2(2.2.15) cells assessed as reduction in HBsAg level at 20 uM after 9 days by ELISA. Format: functional. The following applies: HepG2 2.2.15, 216 h.
Data set [10] is described as follows: Cytotoxicity against bovine MDBK cells assessed as cell viability after 72 hrs by MTS/PMS assay. It counts as cell-based, Bos taurus. The following applies: cattle.
For data set [11], the system named is Human alphaherpesvirus 1. Description: Antiviral activity against Herpes simplex virus (type 1 / strain F) infected in Vero cells assessed as reduction of number of viral plaques at 31.25 uM after 2 days relative to control. Format: functional. The following applies: Human alphaherpesvirus 1, strain F, 48 h.
A short description of data set [12]: Cytotoxicity against human HepG2(2.2.15) cells assessed as cell viability after 72 hrs by MTS/PMS assay. It counts as cell-based.
Data set [13] in a line: Cytotoxicity against african green monkey Vero cells assessed as cell viability after 72 hrs by MTS/PMS assay. It counts as cell-based. The following applies: chlorocebus sabaeus.

A value given as a limit tells only on which side of the number the result lay.

What is called inhibition is the change of the read-out against control, counted positive when it falls. One may read the CC50 as the concentration that lowers cell viability or growth by half. In general, EC50 refers to the midpoint of the concentration-response curve.

Take `Nc1ncnc2c1nnn2[C@@H]1c2ccccc2C[C@H]1O`: the inhibition at 100 µM in data set [1] worked out at 7.8%; in data set [5] it was 42.1%. Also, the cytotoxic concentration (CC50) at 216 h in [2] is above 500 µM. In addition, the cytotoxic concentration (CC50) at 48 h in data set [3] is above 500 µM. In data set [4], the CC50 at 72 h was above 500 µM.
As for `Oc1ncnc2c1nnn2[C@H]1c2ccccc2C[C@H]1O`, the inhibition at 100 µM in [1] was 15.8%; in [5], 27.7%. Also, the CC50 at 216 h in data set [2] was above 500 µM. Also, the cytotoxic concentration (CC50) at 48 h in data set [3] was above 500 µM. In addition, the half-maximal cytotoxic concentration (CC50) at 72 h in data set [4] is above 500 µM.
On to `Oc1ncnc2c1nnn2[C@@H]1c2ccccc2C[C@@H]1O`, for which the inhibition at 100 µM in data set [1] amounted to 12.8%; in data set [5], 35.3%. Also, the cytotoxic concentration (CC50) at 216 h in data set [2] is above 500 µM. Moreover, the 50% cytotoxic concentration (CC50) at 48 h in data set [3] was above 500 µM. Also, the cytotoxic concentration (CC50) at 72 h in data set [4] is above 500 µM.
For the molecule `Nc1ncnc2c1nnn2[C@@H]1c2ccccc2C[C@@H]1O`, in [2], the CC50 at 216 h was above 500 µM. In data set [3], the CC50 at 48 h was determined as 202 µM. Besides, the cytotoxic concentration (CC50) at 72 h in data set [4] is above 500 µM. The figures for the inhibition at 100 µM in data set [5] and in data set [6] were 17.6% and 19.4%, respectively.
Take `Oc1ncnc2c1nnn2[C@H]1c2ccccc2C[C@@H]1O`: the CC50 at 216 h in data set [2] was above 500 µM. Besides, the CC50 at 48 h in data set [3] is above 500 µM. Further, in data set [4], the CC50 at 72 h is above 500 µM. Also, the inhibition at 100 µM in data set [5] was 25.2%.
For the molecule `NC(=O)c1ncn([C@@H]2O[C@H](CO)[C@@H](O)[C@H]2O)n1` [RIBAVIRIN], the EC50 in data set [7] turned out to be 4.6 µM.
In the case of `O[C@H]1Cc2ccccc2[C@@H]1n1cnc2c(Cl)ncnc21`, the inhibition at 100 µM in data set [1] stood at 16.2%; in data set [5], 14.2%. Also, in data set [2], the CC50 at 216 h is above 500 µM. Also, the CC50 at 48 h in [3] is above 500 µM. In [4], the half-maximal cytotoxic concentration (CC50) at 72 h was above 500 µM.
As to `Nc1ncnc2c1nnn2[C@H]1c2ccccc2C[C@@H]1O`, the results for the inhibition at 100 µM in data set [1] and in data set [5] were 14.5% and 37.2%, respectively. In [2], the 50% cytotoxic concentration (CC50) at 216 h was above 500 µM. Further, the CC50 at 48 h in data set [3] was 311 µM. Besides, the CC50 at 72 h in data set [4] was above 500 µM.
On to `O[C@H]1Cc2ccccc2[C@H]1n1cnc2c(Cl)ncnc21`, for which the results for the inhibition at 100 µM in [1], in data set [5] and in data set [6] were 23.2%, 30.8% and 19.7%, respectively. For the same molecule, the 50% cytotoxic concentration (CC50) at 216 h in data set [2] was above 500 µM. Further, the CC50 at 48 h in data set [3] is above 500 µM. The half-maximal cytotoxic concentration (CC50) at 72 h in data set [4] was above 500 µM.
As to `Nc1nc2c(ncn2COCCO)c(=O)[nH]1` [ACYCLOVIR], the EC50 in data set [8] was 0.5 µM.
Take `Oc1ncnc2c1nnn2[C@@H]1c2ccccc2C[C@H]1O`: the CC50 at 216 h in [2] was above 500 µM. Further, in [3], the 50% cytotoxic concentration (CC50) at 48 h is above 500 µM. In data set [4], the CC50 at 72 h was above 500 µM. Also, the inhibition at 100 µM in data set [5] was 16.6%.
`Nc1ccn([C@@H]2CS[C@H](CO)O2)c(=O)n1` [LAMIVUDINE]: in [9], the inhibition at 20 µM was 45%.
Turning to `Nc1ncnc2c1nnn2[C@H]1c2ccccc2C[C@H]1O`, the results for the inhibition at 100 µM in data set [1], in data set [5] and in data set [6] were 20.9%, 41.4% and 42.1%, respectively. Moreover, the 50% cytotoxic concentration (CC50) at 216 h in data set [2] was above 500 µM. Further, the 50% cytotoxic concentration (CC50) at 48 h in data set [3] is above 500 µM. Besides, the 50% cytotoxic concentration (CC50) at 72 h in [4] was above 500 µM.
On to `O[C@@H]1Cc2ccccc2[C@@H]1n1cnc2c(Cl)ncnc21`, for which the results for the CC50 at 72 h in data set [10], in data set [12] and in data set [13] were 14.3 µM, 308 µM and 254 µM, respectively. For the same molecule, the inhibition at 31.25 µM in data set [11] was found to be 20.9%.
Turning to `O[C@@H]1Cc2ccccc2[C@H]1n1cnc2c(Cl)ncnc21`, the inhibition at 100 µM turned out to be 7.2% in data set [1] and 22.6% in data set [5]. Besides, in data set [2], the CC50 at 216 h was above 500 µM. The CC50 at 48 h in data set [3] was above 500 µM. For the same molecule, in data set [4], the cytotoxic concentration (CC50) at 72 h is above 500 µM.
